In publication PMC10220648 (Viruses, 2023):
Like-named read-outs stand apart in the source and are kept apart here.

Experiments:
[1] = tested on: HIV-1JRFL-infected primary CD4+ T cells; assay: Anti-CoRBS 17b mAb binding to infected cells (flow cytometry); assay type: cell-based, human; details: 50 µM CD4mc; p24+ population; MFI
[2] = tested on: HIV-1CH58TF; assay: microbe, parasite or virus in culture; assay type: cell-based; details: TZM-bl cells, average ± SD of at least three independent experiments, read-out: Viral neutralization IC50, HIV-1CH58TF
[3] = tested on: HIV-1AD8-infected primary CD4+ T cells; assay: FACS-based ADCC assay with HIV+ plasma; assay type: cell-based, human; details: 50µM compound; plasma 1/1000; effector/target 10:1
[4] = tested on: HIV-1AD8-infected primary CD4+ T cells; assay: HIV+ plasma cell-surface staining of infected cells; assay type: cell-based, human; details: 50µM compound; plasma 1:1000
[5] = molecular target: LMHT gp120CRF01_AE coree (Human immunodeficiency virus type 1, UniProt Q0ED31, DEL123-198/DEL305-311/DEL316-323/H375T/H60Y/I469M/K470R/N199G/N304G/N468D/P313S/Q104H/Q315S/T200G/V107I); assay: biochemical; assay type: binding, HIV-1
[6] = tested on: VSV-G pseudovirus; assay: microbe, parasite or virus in culture; assay type: cell-based; details: TZM-bl, read-out: Viral neutralization IC50, VSV-G Pseudovirus
[7] = tested on: HIV-1AD8; assay: microbe, parasite or virus in culture; assay type: cell-based; details: TZM-bl cells, tier-2 virus, average ± SD of at least three independent experiments, read-out: Viral neutralization IC50, HIV-1AD8
[8] = tested on: HIV-1CH58TF-infected primary CD4+ T cells; assay: HIV+ plasma cell-surface staining of infected cells; assay type: cell-based, human; details: 50µM compound; plasma 1:1000
[9] = tested on: HIV-1CH58TF-infected primary CD4+ T cells; assay: FACS-based ADCC assay with HIV+ plasma; assay type: cell-based, human; details: 50µM compound; plasma 1/1000; effector/target 10:1
[10] = tested on: HIV-1CH58TF-infected primary CD4+ T cells; assay: Anti-CoRBS 17b mAb binding to infected cells (flow cytometry); assay type: cell-based, human; details: 50 µM CD4mc; p24+ population; MFI
[11] = tested on: HIV-1JRFL; assay type: cell-based; details: TZM-bl cells; tier-2 virus; average ± SD of at least three independent experiments
[12] = tested on: HIV-1JRFL-infected primary CD4+ T cells; assay: HIV+ plasma cell-surface staining of infected cells; assay type: cell-based, human; details: 50µM compound; plasma 1:1000
[13] = tested on: HIV-1JRFL-infected primary CD4+ T cells; assay: FACS-based ADCC assay with HIV+ plasma; assay type: cell-based, human; details: 50µM compound; plasma 1/1000; effector/target 10:1
[14] = Human immunodeficiency virus 1, TZM-bl

For `NCC(=O)N1CCN(C(=O)N2C[C@H](CO)C[C@H](C(=O)Nc3ccc(Cl)c(F)c3)C2)CC1` (racemic) [DL-I-101], the “17b binding (exposure of the CoRBS), HIV-1JRFL-infected cells” value (“17b binding … HIV-1JRFL-infected cells” for short) [1] was “successfully exposed the CoRBS”, the IC50 [2, 14] was 0.16 ± 0.03 µM and the “Susceptibility to ADCC mediated by HIV+ plasma, HIV-1AD8” value [3] was “translated into ADCC”. The “HIV+ plasma binding (recognition of infected cells), HIV-1AD8” value (“HIV+ plasma binding … HIV-1AD8” for short) [4] was “did”, the IC50 [5] was 0.308 µM and the IC50 [6] was > 100 µM. For the same compound, the IC50 [7, 14] was 10.2 ± 3.1 µM.
In the case of `O=C(O)CN1CCN(C(=O)N2C[C@H](CO)C[C@H](C(=O)Nc3ccc(Cl)c(F)c3)C2)CC1` (racemic) [DL-I-102], the “17b binding … HIV-1JRFL-infected cells” value [1] is reported as “successfully exposed the CoRBS”, the IC50 [2, 14] is reported as 0.66 ± 0.25 µM and the IC50 [5] is reported as 0.561 µM. For the same compound, the IC50 [6] was > 100 µM and the IC50 [7, 14] was 87 ± 39 µM.
With `CNCc1ccc2c(c1)C[C@H](CNC(=N)N)[C@H]2NC(=O)C(=O)Nc1ccc(Cl)c(F)c1` [BNM-III-170, reference compound] the “HIV+ plasma binding (recognition of infected cells), HIV-1CH58TF” value [8] was “enhanced the recognition”, the IC50 [2, 14] was 0.0336 µM and the IC50 [2] was 0.033 ± 0.01 µM. For the same compound, the IC50 [6] was > 100 µM, the IC50 [7, 14] was 3.75 µM and the IC50 [7] was 3.75 ± 1.3 µM. The “Susceptibility to ADCC mediated by HIV+ plasma, HIV-1CH58TF” value [9] was “enhanced”.
`NCCNC(=O)N1CCC[C@H](C(=O)Nc2ccc(Cl)c(F)c2)C1` [MCG-IV-210, reference compound] was tested, and the “HIV+ plasma binding (recognition of infected cells), HIV-1CH58TF” value [8] was “enhanced the recognition”, the “17b binding … HIV-1JRFL-infected cells” value [1] was “but not the tier-2 HIV-1JRFL” and the “17b binding (exposure of the CoRBS), HIV-1CH58TF-infected cells” value [10] was “exposed the CoRBS”. The IC50 [2, 14] was 3.46 ± 1.06 µM, the “HIV+ plasma binding … HIV-1AD8” value [4] was “did not promote HIV+ plasma binding” and the IC50 [5] was 0.969 µM. The IC50 [6] was > 100 µM, the IC50 [7, 14] was > 100 µM and the “Susceptibility to ADCC mediated by HIV+ plasma, HIV-1CH58TF” value [9] was “enhanced”. For the same compound, the “Viral neutralization IC50, HIV-1JRFL” value [11] was “unable to inhibit viral infection”.
With `CN1CCN(C(=O)N2CCC[C@H](C(=O)Nc3ccc(Cl)c(F)c3)C2)CC1` [TFH-I-070-A6] the “17b binding … HIV-1JRFL-infected cells” value [1] was “successfully exposed the CoRBS”, the IC50 [2, 14] was 0.45 ± 0.09 µM and the “HIV+ plasma binding … HIV-1AD8” value [4] was “did”. For the same compound, the IC50 [6] was > 100 µM and the IC50 [7, 14] was 9.59 ± 3.4 µM.
For `CC1CN(C(=O)N2CCCC(C(=O)Nc3ccc(Cl)c(F)c3)C2)CC(C)N1C` (stereo not shown) [TFH-I-116-D1], the “HIV+ plasma binding (recognition of infected cells), HIV-1JRFL” value [12] was “recognized the infected cells”, the “17b binding … HIV-1JRFL-infected cells” value [1] was “successfully exposed the CoRBS” and the IC50 [2, 14] was 0.0655 µM. For the same compound, the “Susceptibility to ADCC mediated by HIV+ plasma, HIV-1JRFL” value [13] was “not translated into enhanced ADCC”, the “Susceptibility to ADCC mediated by HIV+ plasma, HIV-1AD8” value [3] was “translated into ADCC” and the “HIV+ plasma binding … HIV-1AD8” value [4] was “did”. For the same compound, the IC50 [6] was > 100 µM and the IC50 [7, 14] was 4.8 µM.
In the case of `CN1CCN(C(=O)N2C[C@H](CN)C[C@H](C(=O)Nc3ccc(Cl)c(F)c3)C2)CC1` [ZXC-I-090], the IC50 [2, 14] is reported as 2.63 ± 0.5 µM, the IC50 [6] is reported as > 100 µM and the IC50 [7, 14] is reported as > 100 µM.
In the case of `C[C@@H]1CN(C(=O)N2C[C@H](CN)C[C@H](C(=O)Nc3ccc(Cl)c(F)c3)C2)C[C@H](C)N1C` [ZXC-I-092], the “17b binding … HIV-1JRFL-infected cells” value [1] is reported as “successfully exposed the CoRBS”, the IC50 [2, 14] is reported as 0.75 ± 0.12 µM and the IC50 [6] is reported as > 100 µM. For the same compound, the IC50 [7, 14] was 34 ± 13.8 µM.
